Test results published in patent publication US8163509B2, “Biological markers predictive of anti-cancer response to insulin-like growth factor-1 receptor kinase inhibitors” (The Regents of the University of Colorado, A Body Corporate, priority 2008, dated 2012).

What was measured:
[1] = tested on: Akt; assay: Immunoblotting, pathway activation; assay type: cell-based, human; details: PQIP 0.4 μmol/L 3 h, with or without IGF-2 stimulation
Protocol: (§1) Immunoprecipitation and Immunoblotting: HT29 and HCT116 CRC cell lines were seeded into 6-well plates, allowed to attach for 24 hours and serum starved overnight. Cells were then exposed to IGF-2 (100 ng/mL) for 10 minutes with or without a 3 hour PQIP (0.4 μmol/L) pretreatment. After treatment cells were rinsed with PBS and scraped into RIPA lysis buffer containing protease inhibitors, EDTA, NaF, and sodium orthovanadate. Total protein was quantified using the BioRad Dc Protein Assay (BioRad, Hercules, Calif.). Total protein (30 μg) was electrophoresed on a 4-20% gradient SDS-polyacrylimide gel then electrophoretically transferred to Immobilon-P (Millipore, Bedford, Mass.). Membranes were blocked for 1 hour in 5% non-fat dry milk (BioRad, Hercules, Calif.) in TBS-Tween (0.1%) prior to overnight incubation at 4° C. with the appropriate primary antibody. Blots were then washed 3×20 minutes in TBS-Tween (0.1%) and were incubated with the appropriate secondary anti-rabbit or anti-mouse IgG1 horseradish peroxidase-linked antibody at 1:20,000 (Jackson ImmunoResearch, West Grove, Pa.) for one hour at room temperature. After three additional washes, the blots were developed by Immobilon Western Chemiluminescent HRP substrate (Millipore, Billerica, Mass.). Anti-IGF1Rβ rabbit polyclonal (Cell Signaling Technology, Danvers, Mass.) was used for immunoprecipitation at a 1:50 dilution. The following primary antibodies were used for immunoblotting (all from Cell Signaling Technology, Danvers, Mass.). Anti-phosphorylated Akt (T308) rabbit polyclonal, anti-phosphorylated S6 ribosomal protein (S235/236) rabbit mAb, anti-phosphorylated p44/42 MAPK (Thr202/Tyr204) rabbit mAb, and anti-phosphorylated tyrosine mouse mAb at 1:1.000. Anti-Akt (pan) rabbit mAb, anti-S6 ribosomal protein rabbit mAb, anti-p44/42 MAP Kinase rabbit mAb, anti Pan-Actin rabbit polyclonal, anti-IGF1Rβ rabbit polyclonal, anti-PARP rabbit polyclonal, and anti-cyclin D1 rabbit polyclonal at 1:5000.
(§2) Effect of PQIP on receptor phosphorylation and pathway activation: Since PQIP is expected to inhibit autophosphorylation of IGF1R, we tested its ability to inhibit IGF-2 mediated activation of the receptor and pathway. One PQIP sensitive and one PQIP resistant CRC cell line were chosen for immunoprecipitation and immunoblotting analysis. Following 18 h serum starvation, HT29 and HCT116 CRC cell lines were stimulated or unstimulated for 10 minutes with 100 ng/mL of IGF-2 with or without a 3 h pre-exposure to PQIP (0.4 μmol/L).

[2] = tested on: p42/44 MAPK; assay: Immunoblotting, pathway activation; assay type: cell-based, human; details: PQIP 0.4 μmol/L 3 h pre-exposure, IGF-2 100 ng/mL 10 minutes
Protocol: as §1, §2

[3] = tested on: S6 ribosomal protein; assay: Immunoblotting, pathway activation; assay type: cell-based, human; details: PQIP 0.4 μmol/L 3 h, with or without IGF-2 stimulation
Protocol: as §1, §2

[4] = tested on: HT29 CRC cell line; assay: Gene expression analysis post PQIP exposure (gene array); assay type: cell-based, human; details: 400 nM PQIP, 72 hours
Protocol: (§3) Microarray Analysis: Cells were plated at 2×106 in 6-well plates 24 h prior to harvest. After 24 hours cells were rinsed twice with PBS, and RNA was prepared using a RNeasy Plus mini kit (Qiagen, Valencia, Calif.). RNA stabilization, isolation, and microarray sample labeling were carried out using standard methods for reverse transcription and one round of in vitro transcription. HG-U133 set microarrays were hybridized with 10 μg of cRNA and processed according to the protocols of the manufacturer (Affymetrix). Hybridization signals and detection calls were generated in BioConductor, using the germa and affy software packages. Microarray data was analyzed using BRB ArrayTools v3.2 developed by Dr. Richard Simon and Amy Peng Lam.
(§4) Gene Expression Analysis Post PQIP Exposure: In order to identify genes that are modulated following exposure to PQIP, 5 sensitive and 5 resistant CRC cell lines were treated with 400 nM PQIP for 72 hours, total RNA was purified, and gene array analysis was performed as described previously. The gene expression profiles following PQIP exposure were compared to the respective untreated profiles. To characterize changes in gene expression profile, one PQIP resistant (HCT116) and one PQIP sensitive (HT29) tumor cell type was examined, and caldesmon, metallothioneins, ALDH1A1, and MAP2K6 expression levels were analyzed.

[5] = tested on: HCT116 CRC cell line; assay: as above; assay type: cell-based, human; details: 400 nM PQIP, 72 hours
Protocol: as §3, §4

[6] = biological target: T1, IGF1R (Homo sapiens, UniProt P08069); assay: Meso Scale Discovery (MSD) assay of phosphorylated IGF1R; assay type: cell-based; details: HT29 and HCT116, 72 h
T1 construct: endogenous in cells; host or cells: HT29 and HCT116 CRC cell lines
T1 sequence (P08069 31-1367): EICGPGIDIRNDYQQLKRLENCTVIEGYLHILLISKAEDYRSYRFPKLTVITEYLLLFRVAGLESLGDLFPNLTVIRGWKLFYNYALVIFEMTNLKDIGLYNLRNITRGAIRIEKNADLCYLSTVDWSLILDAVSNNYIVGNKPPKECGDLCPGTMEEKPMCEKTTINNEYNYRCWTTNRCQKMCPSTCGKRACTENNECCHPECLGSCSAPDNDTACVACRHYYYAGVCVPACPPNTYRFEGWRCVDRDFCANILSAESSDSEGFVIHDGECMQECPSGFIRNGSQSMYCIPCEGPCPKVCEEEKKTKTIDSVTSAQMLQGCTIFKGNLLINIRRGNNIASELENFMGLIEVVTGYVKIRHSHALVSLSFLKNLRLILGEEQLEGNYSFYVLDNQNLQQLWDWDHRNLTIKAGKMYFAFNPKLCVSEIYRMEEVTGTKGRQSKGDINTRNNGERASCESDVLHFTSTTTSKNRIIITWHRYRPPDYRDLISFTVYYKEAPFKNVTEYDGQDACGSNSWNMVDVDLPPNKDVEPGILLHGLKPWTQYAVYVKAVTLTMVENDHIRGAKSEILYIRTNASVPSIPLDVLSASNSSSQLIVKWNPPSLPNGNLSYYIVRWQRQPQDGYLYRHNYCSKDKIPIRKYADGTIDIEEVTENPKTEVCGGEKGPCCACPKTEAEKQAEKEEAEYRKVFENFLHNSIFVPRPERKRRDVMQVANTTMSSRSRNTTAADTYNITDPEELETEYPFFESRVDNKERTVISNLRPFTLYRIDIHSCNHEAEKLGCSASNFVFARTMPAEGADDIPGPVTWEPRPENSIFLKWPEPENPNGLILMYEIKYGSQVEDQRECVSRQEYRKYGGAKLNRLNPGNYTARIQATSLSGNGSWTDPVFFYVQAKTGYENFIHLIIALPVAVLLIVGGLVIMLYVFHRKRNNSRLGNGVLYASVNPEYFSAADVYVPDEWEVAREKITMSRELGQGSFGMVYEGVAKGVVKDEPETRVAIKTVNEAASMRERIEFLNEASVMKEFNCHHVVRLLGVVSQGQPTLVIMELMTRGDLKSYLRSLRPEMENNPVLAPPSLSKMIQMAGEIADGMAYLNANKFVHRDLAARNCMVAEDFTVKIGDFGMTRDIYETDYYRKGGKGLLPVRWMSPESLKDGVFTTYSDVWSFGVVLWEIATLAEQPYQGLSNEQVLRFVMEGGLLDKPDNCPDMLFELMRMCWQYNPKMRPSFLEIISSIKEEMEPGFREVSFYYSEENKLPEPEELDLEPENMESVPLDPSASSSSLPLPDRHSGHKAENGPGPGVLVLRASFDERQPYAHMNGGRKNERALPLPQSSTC
Protocol: Detection of IGF1R using Meso Scale Discovery assays (MSD): HT29 and HCT116 CRC cell lines were seeded into 6-well plates, allowed to attach for 24 hours and exposed to PQIP and chemotherapy (SN38, or Oxaliplatin) alone or in combination for 72 h. Following exposure, cells were rinsed with PBS and scraped into RIPA lysis buffer containing protease inhibitors, EDTA, NaF, and sodium orthovanadate. Total protein was quantified using the BioRad Dc Protein Assay (BioRad, Hercules, Calif.). Fifty micrograms of protein in 25 μL was added per well for MSD detection of phosphorylated IGF-1R according to manufacturer's instructions (Meso Scale Discovery, Gaithersburg, Md.).
Cells were exposed to PQIP (0.4 μmol/L) and chemotherapy (SN38 0.004 μmol/L, or Oxaliplatin 1.0 μmol/L) alone or in combination for 72 h. Protein was extracted and analyzed for phospho/total IGF1R levels using a Meso Scale Discovery (MSD; Gaithersburg, Md. 20877) assay.

[7] = biological target: T1, IGF1R; assay: Immunoprecipitation and immunoblotting, IGF-2 induced receptor autophosphorylation; assay type: cell-based; details: PQIP 0.4 μmol/L 3 h pre-exposure, IGF-2 100 ng/mL 10 minutes
From the text: Total protein was quantified using the BioRad Dc Protein Assay (BioRad, Hercules, Calif.).

CN1CCN([C@H]2C[C@@H](c3nc(-c4ccc5ccc(-c6ccccc6)nc5c4)c4c(N)nccn43)C2)CC1 [PQIP, cis-3-[3-(4-Methyl-piperazin-1-yl)-cyclobutyl]1-(2-phenyl-quinolin-7-yl)-imidazo[1,5-a]pyrazin-8-ylamine]
phosphorylation of Akt ([1]; HCT116): inhibits
phosphorylation of Akt ([1]; HT29): inhibits
IGF-2 induced phosphorylation of p42/44 MAPK ([2]; HCT116): not in resistant HCT116
IGF-2 induced phosphorylation of p42/44 MAPK ([2]; HT29): inhibited
phosphorylation of S6 ribosomal protein ([3]; HCT116): inhibits
phosphorylation of S6 ribosomal protein ([3]; HT29): inhibits
Fold change of post exposure PQIP to untreated, ALDH1A1 expression [4]: 0.56 fold
Fold change of post exposure PQIP to untreated, CALD1 expression [4]: 1.5 fold
Fold change of post exposure PQIP to untreated, MAP2K6 expression [4]: 0.87 fold
Fold change of post exposure PQIP to untreated, MT1E expression [4]: 12.5 fold
Fold change of post exposure PQIP to untreated, MT1F expression [4]: 10.8 fold
Fold change of post exposure PQIP to untreated, MT1G expression [4]: 4.5 fold
Fold change of post exposure PQIP to untreated, MT1H expression [4]: 11.0 fold
Fold change of post exposure PQIP to untreated, MT1M expression [4]: 15.2 fold
Fold change of post exposure PQIP to untreated, MT1X expression [4]: 16.0 fold
Fold change of post exposure PQIP to untreated, MT2A expression [4]: 8.1 fold
Fold change of post exposure PQIP to untreated, ALDH1A1 expression [5]: 2.3 fold
Fold change of post exposure PQIP to untreated, CALD1 expression [5]: 1.9 fold
Fold change of post exposure PQIP to untreated, MAP2K6 expression [5]: 0.7 fold
Fold change of post exposure PQIP to untreated, MT1E expression [5]: 1.2 fold
Fold change of post exposure PQIP to untreated, MT1F expression [5]: 1.6 fold
Fold change of post exposure PQIP to untreated, MT1G expression [5]: 1.1 fold
Fold change of post exposure PQIP to untreated, MT1H expression [5]: 1.8 fold
Fold change of post exposure PQIP to untreated, MT1M expression [5]: 1.5 fold
Fold change of post exposure PQIP to untreated, MT1X expression [5]: 2.0 fold
Fold change of post exposure PQIP to untreated, MT2A expression [5]: 1.0 fold
effect on phosphorylated IGF1R, PQIP in combination with SN38 or Oxaliplatin ([6]; PQIP 0.4 μmol/L plus SN38 0.004 μmol/L or Oxaliplatin 1.0 μmol/L): inhibited
effect on phosphorylated IGF1R, agent alone ([6]; PQIP 0.4 μmol/L, SN38 0.004 μmol/L, Oxaliplatin 1.0 μmol/L): inhibited
IGF-2 induced tyrosine autophosphorylation of IGF1R ([7]; HCT116): almost fully inhibits
IGF-2 induced tyrosine autophosphorylation of IGF1R ([7]; HT29): almost fully inhibits
